The results in this text go back to ChEMBL document CHEMBL2163313, “Shape-based reprofiling of FDA-approved drugs for the H₁ histamine receptor” (J Med Chem, 2012).

The target in assay [1] is Histamine H1 receptor (Rattus norvegicus, UniProt P31390). The format is cell membranes, Sprague-Dawley, Brain, Membrane.
For assay [2], the target named is T1, Histamine H1 receptor (Homo sapiens, UniProt P35367). Kind of assay: Antagonist activity at H1 receptor in human HeLa cells assessed as inhibition of histamine-induced Ca2+ release by using fura-2AM-based fluorescence assay. The format is functional, cell-based.
For the next assay, the system named is HeLa. Kind of assay: Antagonist activity at P2Y receptor in human HeLa cells assessed as inhibition of ATP-induced Ca2+ release at 100 uM by using fura-2AM-based fluorescence assay. The format is functional, cell-based.
Assay [3] concerns the target T1, Histamine H1 receptor. Kind of assay: Antagonist activity at histamine H1 receptor in human HeLa cells assessed as inhibition of histamine-induced Ca2+ release at 100 uM by using fura-2AM-based fluorescence assay. The assay is classed as functional, cell-based.

Calls of active or inactive are those of the source. The rule behind the calls is not given here.

Sequence of Histamine H1 receptor (Rattus norvegicus, UniProt P31390) (P31390 whole entry): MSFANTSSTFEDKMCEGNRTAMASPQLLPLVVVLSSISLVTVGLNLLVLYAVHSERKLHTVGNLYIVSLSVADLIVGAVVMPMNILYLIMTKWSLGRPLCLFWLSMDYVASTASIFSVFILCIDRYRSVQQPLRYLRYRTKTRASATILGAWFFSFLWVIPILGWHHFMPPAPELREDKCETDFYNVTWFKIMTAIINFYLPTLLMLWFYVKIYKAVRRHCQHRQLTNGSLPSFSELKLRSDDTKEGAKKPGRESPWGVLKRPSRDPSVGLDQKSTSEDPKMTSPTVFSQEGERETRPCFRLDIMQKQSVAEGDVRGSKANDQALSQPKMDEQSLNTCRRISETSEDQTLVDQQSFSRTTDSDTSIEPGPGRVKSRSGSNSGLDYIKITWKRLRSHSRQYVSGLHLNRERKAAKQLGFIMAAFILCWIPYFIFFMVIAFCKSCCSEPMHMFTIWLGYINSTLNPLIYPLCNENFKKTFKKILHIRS
T1 sequence (P35367 whole entry): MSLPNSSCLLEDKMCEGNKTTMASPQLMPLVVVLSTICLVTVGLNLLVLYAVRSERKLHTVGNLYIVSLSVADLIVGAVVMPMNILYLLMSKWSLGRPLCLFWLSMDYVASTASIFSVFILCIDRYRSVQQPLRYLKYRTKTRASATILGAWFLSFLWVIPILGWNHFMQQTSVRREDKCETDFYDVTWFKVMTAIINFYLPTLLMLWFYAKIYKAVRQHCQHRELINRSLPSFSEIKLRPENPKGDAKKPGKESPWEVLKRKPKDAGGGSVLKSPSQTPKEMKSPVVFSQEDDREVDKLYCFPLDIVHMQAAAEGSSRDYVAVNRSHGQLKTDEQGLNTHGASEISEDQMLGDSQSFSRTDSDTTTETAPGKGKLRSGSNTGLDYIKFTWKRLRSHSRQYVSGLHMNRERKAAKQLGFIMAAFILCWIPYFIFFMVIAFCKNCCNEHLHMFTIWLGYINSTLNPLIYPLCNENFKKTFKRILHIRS

On to `CCN(CC)CCOC(=O)C(c1ccccc1)c1ccccc1` [ADIPHENINE], for which the IC50 is 17 µM against Histamine H1 receptor [1] and 112 µM on Histamine H1 receptor [2].
For `OC(CCN1CCCC1)(c1ccccc1)C1CCCCC1` (centres undefined) [PROCYCLIDINE], the IC50 at Histamine H1 receptor [1] was 6.76 µM.
`OC(CCN1CCCCC1)(c1ccccc1)C1CC2C=CC1C2` (centres undefined): the inhibition result with HeLa and at Histamine H1 receptor [3] was “Active” throughout.
At Histamine H1 receptor [1], `CN(C)CC/C=C1/c2ccccc2Sc2ccc(Cl)cc21` [CHLORPROTHIXENE] gave an IC50 of 0.00107 µM.
For the compound `CN1[C@@H](CC(=O)c2ccccc2)CCC[C@H]1C[C@H](O)c1ccccc1` [LOBELINE], the IC50 against Histamine H1 receptor [1] is 11.2 µM; at Histamine H1 receptor [2] it was 44.7 µM.
Take `NC(=O)OCC(COC(N)=O)c1ccccc1`: the inhibition entry in the assay with HeLa was “inactive”.

One may read the IC50 as the concentration that inhibits the measured activity by half.
